Data: PubChem BioAssay (NCI)
Several values for one entry are separate records, joined by “and”; a condition that tells them apart may be missing. Identical values can stand only once.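 Assay format: 96-well plates, 48-hour exposure. The concentration for 50% growth inhibition is given as GI50. At the TGI there is no net growth.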

How the values were obtained:
Experiment in all cases: NCI tumour cell line growth inhibition, 48 h
SNB-19 CNS = system: SNB-19 CNS
OVCAR-5 ovarian = system: OVCAR-5 ovarian
TK-10 renal = system: TK-10 renal
HOP-62 NSCLC = system: HOP-62 NSCLC
HCT-116 colon = system: HCT-116 colon
HOP-92 NSCLC = system: HOP-92 NSCLC
KM12 colon = system: KM12 colon
MDA-MB-231 breast = system: MDA-MB-231 breast
NCI-H460 lung = system: NCI-H460 lung
CAKI-1 renal = system: CAKI-1 renal

| SMILES | TGI (SNB-19 CNS) [µM] | TGI (OVCAR-5 ovarian) [µM] | TGI (TK-10 renal) [µM] | TGI (HOP-62 NSCLC) [µM] | TGI (HCT-116 colon) [µM] | TGI (HOP-92 NSCLC) [µM] | TGI (KM12 colon) [µM] | TGI (MDA-MB-231 breast) [µM] | TGI (NCI-H460 lung) [µM] | TGI (CAKI-1 renal) | GI50 (SNB-19 CNS) [µM] | GI50 (OVCAR-5 ovarian) | GI50 (TK-10 renal) | GI50 (HOP-62 NSCLC) [µM] | GI50 (HCT-116 colon) [µM] | GI50 (HOP-92 NSCLC) | GI50 (KM12 colon) | GI50 (MDA-MB-231 breast) [µM] | GI50 (NCI-H460 lung) | GI50 (CAKI-1 renal) |
| --- | --- | --- | --- | --- | --- | --- | --- | --- | --- | --- | --- | --- | --- | --- | --- | --- | --- | --- | --- | --- |
| N#C/C(=C\Nc1ccccn1)C(=O)c1ccco1 | > 100 | > 100 | > 100 | > 100 | > 100 | > 100 | > 100 | > 100 | > 100 | > 100 µM | – | – | – | – | – | – | – | – | – | – |
| O=C(/C=C/c1cccc([N+](=O)[O-])c1)c1ccc(O)c(CN2CCN(c3cc4c(cc3F)c(=O)c(C(=O)O)cn4C3CC3)CC2)c1 | 2.79 | 3.35 | 5.59 | 16.8 | 1.81 | 9.97 | 3.4 | 4.02 | 19.3 | 3.24 µM | 1.34 | 1.75 µM | 2.1 µM | 3.47 | 0.494 | 2.17 µM | 1.33 µM | 1.89 | 3.43 µM | 1.63 µM |
| Cc1cccc(Cl)c1NC(=O)c1cnc(Nc2cc(N3CCOCC3)cc(N3CCOCC3)c2)s1 | > 10 | > 10 | 0.0729 | > 10 | > 10 | 0.031 | > 10 | > 4.59 | > 10 | 0.0246 µM | > 3.36 | 0.0275 µM | 0.00622 µM | 0.022 | 0.0328 | 0.00255 µM | > 6.22 µM | 0.0189 | > 5.16 µM | 0.00467 µM |
| CCN(CC)CCCC(C)Nc1c2ccc(Cl)cc2nc2cc(OC)c(OC)cc12 (centres undefined) | 8.98 | 8.53 | 5.04 | – | 4.28 | 8.34 | 10.6 | 3.97 | 4.05 | 5.78 µM | 2.18 | 2.18 µM | 1.99 µM | – | 0.861 | 2.33 µM | 2.54 µM | 1.52 | 1.3 µM | 2.01 µM |
| COc1cc2c(cc1OC)-c1ccc3cc4c(cc3c1N(CCN(C)C)C2)OCO4 | 11.9 | 5.23 | 7.39 | 3.97 | 1.83 | 7.94 | 2.47 | 5.31 | 1.2 | 11.4 µM | 0.4 | 1.53 µM | 2.03 µM | 0.373 | 0.411 | 0.859 µM | 0.97 µM | 1.63 | 0.256 µM | 0.596 µM |
| c1ccc(Nn2c(CCCCCCCCc3nnc(COc4ccccc4)n3Nc3ccccc3)nnc2COc2ccccc2)cc1 | > 300 | > 300 | > 300 | > 300 | > 300 | 267 | > 300 | > 300 | > 300 | 59.1 µM and 34.8 µM | 107 | 8.56 µM and 10.2 µM | 45.7 µM and 162 µM | – | 51.7 | 30.7 µM and 41.9 µM | 5.7 µM and 2.69 µM | 12.4 | 6.34 µM and 12.9 µM | 5.11 µM and 2.73 µM |
| Clc1ccc(C(c2ccc(Cl)cc2)N2CCNCC2)cc1 | 21.3 | 18.3 | 3.74 | 3.71 | 3.84 | 10.6 | 3.63 | 4.4 | 4.65 | 17.4 µM | – | – | – | – | – | – | – | – | – | – |
| CN1C(=O)C(=Cc2cn(Cc3ccccc3)c3ccccc23)C(=O)N(C)C1=O | > 100 | 0.82 | 56.5 | > 100 | > 100 | > 70.9 | > 100 | > 100 | > 100 | > 25.5 µM | > 100 | 0.234 µM | 4.28 µM | 43 | 11.1 | 14.7 µM | 52.4 µM | 54.1 | 1.24 µM | – |
| Cn1c(/C=C(\C#N)c2cccc(C(F)(F)F)c2)nc2c(N3CCOCC3)nc(Cl)nc21 | 2.8 | 2.87 | 3.14 | 3.2 | 0.398 | 1.89 | 3.58 | 2.3 | 3.61 | 1.97 µM | 1.44 | 1.32 µM | 1.72 µM | 1.45 | 0.178 | 0.342 µM | 1.82 µM | 1.05 | 1.67 µM | 0.656 µM |
| CC(=O)OCc1ccc(O)c(C=O)c1 | > 100 | > 100 | > 100 | > 100 | > 100 | > 100 | > 100 | > 100 | > 100 | > 100 µM | – | – | – | – | – | – | – | – | – | – |
| COc1cc2c(cc1OC)C(CC1(O)CCCCC1)N(S(=O)(=O)c1ccc(C)cc1)CC2 (centres undefined) | > 10 | > 10 | > 10 | > 10 | > 10 | > 10 | > 10 | > 10 | > 10 | > 10 µM | > 10 | > 10 µM | > 10 µM | > 10 | > 10 | > 10 µM | > 10 µM | > 10 | > 10 µM | > 10 µM |
| O=C1c2cc(-c3ccccc3)ccc2-c2c1c1ccc([N+](=O)[O-])cc1c(=O)n2CCCBr | > 50 | > 50 | > 50 | > 50 | > 50 | > 50 | > 50 | > 50 | > 50 | > 50 µM | > 36.8 | > 50 µM | 17.5 µM | > 30.2 | > 50 | 17.8 µM | > 50 µM | > 38.9 | > 50 µM | > 50 µM |
| COc1ccc2c(c1)c1nc3cc(C)c(C)cc3nc1n2CCN(C)C | 2.32 | 2.3 | 3.58 | 3.37 | 1.64 | 2.12 | 2.37 | 2.76 | 1.39 | 2.1 µM | 0.678 | 0.953 µM | 1.84 µM | 0.899 | 0.354 | 0.308 µM | 0.827 µM | 1.17 | 0.369 µM | 0.632 µM |
| CN[C@@H]1C[C@H]2O[C@@](C)([C@@H]1OC)n1c3ccccc3c3c4c(c5c6ccccc6n2c5c31)C(=O)N[C@H]4O | 0.722 | – | 0.0541 | 0.766 | 1.89 | 0.0613 | 1.07 | 0.509 | 1.23 | 0.0305 µM | 0.0958 | – | 0.0096 µM | 0.0187 | 0.166 | 0.00753 µM | 0.0395 µM | 0.0227 | 0.0471 µM | 0.00463 µM |
